# Key:
# [1] = tested on: human mesenchymal stem cells; assay: Nile Red / DAPI fluorescence plate reader assay of adipogenic differentiation of hMSCs; type: cell-based
# Protocol: These experiments were performed to determine the effect of adding varying concentrations of indomethacin to mesenchymal stem cells in culture to induce adipogenic differentiation. […] We also tested indomethacin under the same conditions however in the absence of methyl isobutylxanthine. The results were compared visually by observing the accumulation of lipid within the cells and by staining the lipid with the fluorescent lipid-soluble dye Nile Red and reading on a fluorescence plate reader as described in Example 6. These experiments were performed to determine the effect of adding varying concentrations of 15-deoxy Δ^12,14 -prostaglandin J2 (15d-PGJ2) to […] in culture to induce adipogenic differentiation. […] We also tested 15d-PGJ2 under the same conditions without methyl isobutylxanthine present. hMSCs were grown in 12 or 24 well tissue culture plates and were treated with adipogenic inducing agents as described above when the cells were post-confluent. After three treatments, the cells were allowed to accumulate lipid for an additional week prior to analysis. The cell layers were rinsed with Dulbecco's modified PBS (D.PBS) and fixed for 30 minutes in 10% Neutral Buffered Formalin. The plates were then rinsed with D. PBS and incubated for 30 minutes with 0.02% Saponin, 0.8 μg/ml DAPI (from an aqueous 2 mg/ml stock) and 1 μg/ml Nile Red (from a 1 mg/ml stock in acetone) in D. PBS. Plates were then rinsed three times with D.PBS.
# [2] = tested on: human mesenchymal stem cells; assay: Adipogenesis assay of hMSCs, lipid vacuoles observed by microscopy / Oil Red O; type: cell-based; settings: methyl isobutylxanthine alone in normal hMSC media during induction, then 14 days Adipogenic Maintenance Media
# Protocol: Human MSCs are isolated from the red bone marrow of volunteer donors as described in U.S. Pat. No.5,486,359. The cells are grown until colonies are well established and at this point the cells are subcultured (1 to 3) or they can be taken to assay for in vitro adipogenesis. For the adipogenesis assay, hMSCs are subcultured into 35 mm tissue culture dishes at 100,000 cells per dish and fed with 2 milliliters normal hMSC Media (Dulbecco's Modified Eagle's Media (DMEM), 10% selected Fetal Bovine Serum (FBS) and antibiotic/antimycotic mixture (IX) (Life Technologies, Inc.)) and cells are maintained at 37° C., 5% CO2 and 90% humidity. The cells are refed with the fresh media every third day and are allowed to multiply and become confluent. The cells are maintained after reaching confluence by refeeding every third day and this time period of post confluence culturing enhances the adipogenic response in the next step (at least out to 14 days). The differentiation into adipocytes is initiated by changing the media to 2 ml of Adipogenic Induction Media (DMEM with 10% fetal bovine serum containing 10 μg/ml insulin (human recombinant, Boehringer Mannheim Corp.), 0.5 mM methyl isobutylxanthine (MIX)(Sigma Chemical Co.), 1 μM dexamethasone (Dex)(Sigma Chemical Co.)). […]
# [3] = 1 μM 15d-PGJ2 with insulin only (I)
# [4] = 10 μM 15d-PGJ2 with insulin only (I)
# [5] = 50 μM indomethacin in DI (no MIX)
# [6] = 50 μM indomethacin with insulin only (I)
# [7] = 100 μM indomethacin in DI (no MIX)
# [8] = 100 μM indomethacin with insulin only (I)
# [9] = 200 μM indomethacin in DI (no MIX)
# [10] = 200 μM indomethacin with insulin only (I)
structure (smiles),measurement,setting,value
"CCCCC/C=C/C=C1/C(=O)C=C[C@@H]1C/C=C\CCCC(=O)O [15d-PGJ2, 15-deoxy Δ^12,14-prostaglandin J2]",DAPI (cor),[1]; 1 μM 15d-PGJ2 in DI (no MIX),5.99 relative fluorescence intensity
same,Nile red (cor),[1]; 1 μM 15d-PGJ2 in DI (no MIX),1.19 relative fluorescence intensity
same,Nile red/DAPI,[1]; 1 μM 15d-PGJ2 in DI (no MIX),0.20
same,DAPI (cor),[1]; 1 μM 15d-PGJ2 in MDI,6.53 relative fluorescence intensity
same,Nile red (cor),[1]; 1 μM 15d-PGJ2 in MDI,13.16 relative fluorescence intensity
same,Nile red/DAPI,[1]; 1 μM 15d-PGJ2 in MDI,2.02
same,DAPI (cor),[1]; [3],4.98 relative fluorescence intensity
same,Nile red (cor),[1]; [3],0.83 relative fluorescence intensity
same,Nile red/DAPI,[1]; [3],0.17
same,DAPI (cor),[1]; 10 μM 15d-PGJ2 in MDI,7.22 relative fluorescence intensity
same,Nile red (cor),[1]; 10 μM 15d-PGJ2 in MDI,17.56 relative fluorescence intensity
same,Nile red/DAPI,[1]; 10 μM 15d-PGJ2 in MDI,2.43
same,DAPI (cor),[1]; [4],5.75 relative fluorescence intensity
same,Nile red (cor),[1]; [4],0.85 relative fluorescence intensity
same,Nile red/DAPI,[1]; [4],0.15
same,adipogenic response,[1]; 15d-PGJ2 1 or 10 μM in MDI induction medium,dose dependent increase
same,adipogenic effectiveness compared with indomethacin,[1]; 15d-PGJ2 at 10 μM added to MDI medium,nearly as effective as indomethacin
same,effect on adipogenesis,[1]; 15d-PGJ2 with insulin alone,no significant effect
same,DAPI (cor),[1]; DI + 10 15d-PGJ2 (no MIX),5.36 relative fluorescence intensity
same,Nile red (cor),[1]; DI + 10 15d-PGJ2 (no MIX),2.57 relative fluorescence intensity
same,Nile red/DAPI,[1]; DI + 10 15d-PGJ2 (no MIX),0.48
same,adipogenic response,[1]; DI + 15d-PGJ2,weak adipogenic response
"CC(C)Cn1c(=O)n(C)c(=O)c2[nH]cnc21 [methyl isobutylxanthine, 1-methyl-3-isobutylxanthine]",cell phenotype (morphology),[2],retain a flat fibroblastic phenotype
COc1ccc2c(c1)c(CC(=O)O)c(C)n2C(=O)c1ccc(Cl)cc1 [indomethacin],DAPI (cor),[1]; [5],6.66 relative fluorescence intensity
same,Nile red (cor),[1]; [5],3.11 relative fluorescence intensity
same,Nile red/DAPI,[1]; [5],0.47
same,DAPI (cor),[1]; 50 μM indomethacin in MDI,7.8 relative fluorescence intensity
same,Nile red (cor),[1]; 50 μM indomethacin in MDI,11.72 relative fluorescence intensity
same,Nile red/DAPI,[1]; 50 μM indomethacin in MDI,1.50
same,DAPI (cor),[1]; [6],5.12 relative fluorescence intensity
same,Nile red (cor),[1]; [6],0.64 relative fluorescence intensity
same,Nile red/DAPI,[1]; [6],0.13
same,DAPI (cor),[1]; [7],6.77 relative fluorescence intensity
same,Nile red (cor),[1]; [7],5.35 relative fluorescence intensity
same,Nile red/DAPI,[1]; [7],0.79
same,DAPI (cor),[1]; 100 μM indomethacin in MDI,7.11 relative fluorescence intensity
same,Nile red (cor),[1]; 100 μM indomethacin in MDI,16.39 relative fluorescence intensity
same,Nile red/DAPI,[1]; 100 μM indomethacin in MDI,2.31
same,DAPI (cor),[1]; [8],5.81 relative fluorescence intensity
same,Nile red (cor),[1]; [8],0.74 relative fluorescence intensity
same,Nile red/DAPI,[1]; [8],0.13
same,DAPI (cor),[1]; [9],6.03 relative fluorescence intensity
same,Nile red (cor),[1]; [9],10.08 relative fluorescence intensity
same,Nile red/DAPI,[1]; [9],1.67
same,DAPI (cor),[1]; 200 μM indomethacin in MDI,8.72 relative fluorescence intensity
same,Nile red (cor),[1]; 200 μM indomethacin in MDI,20.27 relative fluorescence intensity
same,Nile red/DAPI,[1]; 200 μM indomethacin in MDI,2.32
same,DAPI (cor),[1]; [10],5.28 relative fluorescence intensity
same,Nile red (cor),[1]; [10],0.74 relative fluorescence intensity
same,Nile red/DAPI,[1]; [10],0.14
same,commitment of hMSCs to adipocyte lineage and intracellular lipid accumulation,[1]; indomethacin 50-200 μM in MDI induction medium,dose dependent increase
same,hMSCs becoming adipocytes,[1]; indomethacin at 200 μM in MDI,~100%
same,Nile Red staining relative to MDI sample alone,"[1]; indomethacin at 200 μM in MDI, fluorescent plate reader",nearly three times that of the MDI sample alone
same,adipogenic differentiation level relative to MDI+indomethacin,[1]; indomethacin in DMEM with dexamethasone and insulin only (DI),approximately half that of the MDI+indomethacin sample
same,effect on hMSC adipogenesis,[1]; indomethacin with insulin,no significant effect

# — US6709864B1, “Adipogenic differentiation of human mesenchymal stem cells” (Osiris Therapeutics, Inc., priority 1996, dated 2004)
